Data on 37 compounds can be found in patent US20080281105A1, “Novel Quinolinium Salts and Derivatives” (IMMUSOL INCORPORATED, priority 2005, published 2008).

Series [1] concerns Panc-1, HCT-116, Pc3M/N, HEPG2, ASPC1, or H460 cells. Description: Reduction of viable cell growth in glucose deprived media (liquid culture, alamarBlue). It counts as cell-based. The note with it: for EC50: concentration giving at least 50% reduction of viable cell growth. On the technique in general: Resazurin is reduced to fluorescent resorufin, in cell work by metabolically active cells.

Series [2] concerns A549 cancer cells. Description: A549 NSCL xenograft model, combination with 2DG. The format is in vivo, mice. The note with it: 2DG 300 mg/kg, Example 36 2 mg/kg, i.p. daily (6 times per week); Example 36 alone p<0.05 at day 24 and 27; combination p<0.05 at day 13-27; FIG. 7. From the text: Because the compounds of the invention may be more toxic to cancer cells deprived of glucose or treated with 2DG in vitro, the combination of 2DG with such compounds should have increased anti-tumor efficacy in vivo as compared with either agent alone. Accordingly, the effect of a combination therapy of the compound of Example 36 and 2DG using A549 NSCL xenograft model was examined.
Female athymic nude mice (nu/nu) (4-6 weeks old) were inoculated (s.c.) with 5×10^6 A549 cancer cells in PBS on the flanking site. After the tumors reached an average size ˜100 mm^3, the animals were divided into four treatment groups—0.9% NaCl (control), 2DG at 300 mg/kg, the compound of Example 36 at 2 mg/kg, and a combination of 2DG (300 mg/kg) and the compound of Example 36 (2 mg/kg). All the treatments were delivered by intraperitoneal injection daily (6 times per week). Tumor size and body weight were measured twice per week. Tumor volume was calculated using the formula TV=length×width×width/2.

The next series concerns Lewis lung cancer cells. The experiment in a line: Mouse Lewis lung cancer (LLC) xenograft model. It counts as in vivo, mice. The note with it: 2 mg/kg intraperitoneal, 6 times per week; day 15; p<0.05; FIG. 6. The procedure:
Using the mouse Lewis lung cancer (LLC) xenograft model, female C57BL mice (4-6 weeks old) were inoculated (s.c.) with 5×10^5 Lewis lung cancer cells in PBS on the flanking site. Animals were randomly divided into treatment and control groups (n=8) based on tumor size when average tumor size reached 100 mm^3. Animals in the treatment group received the compound of Example 36 (also designated IMS2143) or the compound of Example 47 daily at 2 mg/kg via intraperitoneal dosing, 6 times per week respectively. The control group was injected with 0.9% NaCl. Tumor size and body weight were measured twice per week. Tumor volume was calculated using the formula TV=length×width×width/2.

Series [3] relates to A549 cancer cells. Description: A549 xenograft model, combination with taxol. The format is in vivo, mice. The note with it: paclitaxel 20 mg/kg once per 4 days i.p.; IMS2155 2 mg/kg daily i.p.; p<0.05 for monotherapies; FIG. 5. Here is the method:
Combination treatment with taxol and the compound of Example 47 (also designated IMS2155) in the A549 (NCLC) model was tested. Taxol is one of standards of care for lung cancer.
Female athymic nude mice (nu/nu) (4-6 weeks old) were inoculated (s.c.) with 5×10^6 A549 cancer cells in PBS on the flanking site. The animals were divided into four treatment groups when the average tumor size reached 150 mm^3: group 1 (PBS daily i.p. dosing), group 2 (20 mg/kg paclitaxel once per 4 days i.p. dosing), group 3 (2 mg/kg IMS2155 daily i.p. dosing) and group 4 (20 mg/kg paclitaxel once per 4 days i.p. dosing and 2 mg/kg IMS2155 daily i.p. dosing). The tumor size and body weight was measured twice per week. Tumor volume was calculated using the formula TV=length×width×width/2.
It is noteworthy that IMS2155 worked almost as well as Taxol at the MTD dose (20 mg/kg for this strain of mice).

For series [4], the system named is eukaryotic translation system. The note with it: reported by Malina; cited from earlier work.
The next series concerns transformed cell growth. The note with it: reported in the literature; cited from earlier work.
The next series concerns PC3 prostate cells. Description: PC3 medium-staged prostate xenograft model, combination therapy. It counts as in vivo, mice. The note with it: Example 1 P.O. daily, doxorubicin or paclitaxel i.p.; tumors around 100 mm^3 at start; FIG. 3 and 4. Here is the method:
The anti-tumor activity of compounds of the invention in combination with at least one additional chemotherapeutic agent was also tested in a nude mice xenograft model.
A. Female athymic nude (nu/nu) mice were inoculated with PC3 prostate cells. When tumor volumes reached around 100 mm^3, the animals were divided into four groups with average size of tumors similar among the four groups. The first group was dosed with vehicle (as control), the second group with the compound of Example 1 (P.O. daily), the third with doxorubicin (i.p.) and the fourth with the combination (i.p. Dox/p.o. compound of Example 1).
B. Female athymic nude (nu/nu) mice were inoculated with PC3 prostate cells. When tumor volumes reached around 100 mm^3, the animals were divided into four groups with average size of tumors similar among the four groups. The first group was dosed with vehicle (as control), the second group with the compound of Example 1 (P.O. daily), the third with paclitaxel (taxol) (i.p.) and the fourth with the combination (ip. taxol/p.o. compound of Example 1).

The next series concerns H460 NSCL cells. The experiment in a line: Non-small cell lung cancer (NSCL) xenograft early stage model in nude mice. It counts as in vivo. Here is the method: The anti-tumor activity of the compound of Example 56 was tested in a nude mice xenograft early stage model. Female athymic nude (nu/nu) mice were inoculated with H460 NSCL cells and divided into two groups. The first group was dosed with vehicle (control), and the second group was dosed i. p. with the compound of Example 56 on a daily basis (6 times/week).

In series [1], `CCCCc1nc(/C=C/c2ccc3cc(N(C)C)ccc3[n+]2C)c(Cl)[nH]1` [Example 39] had a 50% effective concentration (EC50) greater than 1000 nM.
Same read-out and setting: the value for `CN(C)c1ccc2c(ccc(/C=C/c3ccc(-c4nn(C)cc4C(F)(F)F)s3)[n+]2C)c1` [Example 38] was 1000 nM.
Still for that read-out and setting: the value for `CN(C)c1ccc2c(ccc(/C=C/c3cccc(Oc4ccccc4)c3)[n+]2C)c1` [Example 34] was 1000 nM.
`COCCn1c(C)c(C=O)c(/C=C/c2ccc3cc(N(C)C)ccc3[n+]2C)c1C` [Example 25] gave an EC50 in series [1] of less than 1000 nM.
Same read-out and setting: next, `Cc1c(/C=C/c2ccc3cc(N(C)C)ccc3[n+]2C)cnn1-c1ccccc1` [Example 48]: greater than 1000 nM.
`CCCCn1c(C)c(C=O)c(/C=C/c2ccc3cc(N4CCOCC4)ccc3[n+]2C)c1C` [Example 27] displayed an EC50 in series [1] greater than 1000 nM.
On the same count and under the same terms, the value for `Cc1c(C=O)c(/C=C/c2ccc3cc(N(C)C)ccc3[n+]2C)c(C)n1-c1ccccc1` [Example 28] was less than 1000 nM; that for `CN(C)c1ccc2c(ccc(/C=C/c3sccc3Oc3ccccc3)[n+]2C)c1` [Example 49] was less than 1000 nM.
For the compound `CN(C)c1ccc2c(ccc(/C=C/c3cc(C(=O)c4ccc(F)cc4)cn3C)[n+]2C)c1.O=S(=O)([O-])C(F)(F)F` [Example 52], the “reduction of viable cell growth” value in series [1] (at the concentration stated in Table 3) is “inactive”. The EC50 in series [1] was greater than 1000 nM.
The compound `CN(C)c1ccc2c(ccc(/C=C/c3ccc(C#Cc4ccccc4)s3)[n+]2C)c1` [Example 50] came in with an EC50 in series [1] of less than 1000 nM.
Turning to `CCOC(=O)c1c(/C=C/c2ccc3cc(N(C)C)ccc3[n+]2C)c(C)n(-c2ccccc2)c1C` [Example 54], the concentration giving a half-maximal response (EC50) in series [1] is less than 1000 nM.
Still for that read-out and setting: next, `CCn1c2ccccc2c2cc(/C=C/c3ccc4cc(N(C)C)ccc4[n+]3C)ccc21` [Example 51]: less than 1000 nM; `Cc1cc(/C=C/c2ccc3cc(N4CCCCC4)ccc3[n+]2C)c(C)n1-c1ccccc1` [Example 29]: 1000 nM; `CN(C)c1ccc2c(ccc(/C=C/c3cccc(-c4cccs4)n3)[n+]2C)c1` [Example 31]: 1000 nM.
In turn, `CN(C)c1ccc2c(ccc(/C=C/c3coc4ccccc4c3=O)[n+]2C)c1` [Example 40] came in with an EC50 in series [1] of 1000 nM.
For `O=CC[C@@H](O)[C@H](O)[C@H](O)CO` [Example 2DG, 2-deoxyglucose, reference compound], in the series with A549 cancer cells [2], the A549 tumor growth entry is “no response”.
In turn, `CN(C)c1ccc2c(ccc(/C=C/c3ccc(OC(F)(F)F)cc3)[n+]2C)c1` [Example 44] displayed a concentration giving a half-maximal response (EC50) in series [1] of 1000 nM.
Same read-out and setting: next, `Cc1cc(/C=C/c2ccc3cc(N(C)C)ccc3[n+]2C)oc1C` [Example 33]: 1000 nM; `Cc1cc(/C=C/c2ccc3cc(N4CCOCC4)ccc3[n+]2C)c(C)n1-c1ccccc1` [Example 26]: 1000 nM.
With `Cc1cc(/C=C/c2ccc3cc(N(C)C)ccc3[n+]2C)cc(C)c1OCc1ccccc1.O=S(=O)([O-])C(F)(F)F` [Example 47], the LLC tumor growth result with Lewis lung cancer cells is reported as “significantly suppressed tumor growth”. For the same compound, in the series on A549 cancer cells [3], the A549 tumor size result is “significant reduction in tumor size”. Besides, in series [1], the 50% effective concentration (EC50) was less than 1000 nM.
As to `Cc1cc(C=Cc2ccc3cc(OC(N)=O)ccc3[n+]2C)c(O)c2ncccc12` [NSC 86372, 6-(aminocarbonyloxy)-2-(2-(8-hydroxy-5-methylquinolin-7-yl)vinyl)-1-methylquinolinium], the protein synthesis entry in series [4] is on record as “inhibited protein synthesis”.
In series [1], `CN(C)c1ccc2c(ccc(/C=C/c3ccc(OCc4ccsc4C#N)cc3)[n+]2C)c1` [Example 43] registered a 50% effective concentration (EC50) of less than 1000 nM.
`CN(C)c1ccc2c(ccc(/C=C/c3ccc(Oc4ccccc4)cc3)[n+]2C)c1` [Example 35] returned an EC50 in series [1] of less than 1000 nM.
Still for that read-out and setting: the value for `CN(C)c1ccc2c(ccc(/C=C/c3cn(S(=O)(=O)c4ccccc4)c4ccccc34)[n+]2C)c1` [Example 41] was 1000 nM.
Take `CC[n+]1c(C=Cc2ccc(N(C)C)cc2)ccc2ccccc21` [quinaldine red]: the transformed cell growth entry in the series on transformed cell growth is reported as “inhibitor of transformed cell growth”.
Compound `CCOC(=O)c1c(/C=C/c2ccc3cc(N(C)C)ccc3[n+]2C)c(C)n(C2CC2)c1C` [Example 53] showed an EC50 in series [1] of less than 1000 nM.
Same read-out and setting: next, `Cc1cc(/C=C/c2ccc3cc(N4CCC(C)CC4)ccc3[n+]2C)c(C)n1-c1ccccc1` [Example 30]: 1000 nM.
The same measure, in the same setting: the value for `CN(C)c1ccc2c(ccc(/C=C/c3ccc(-c4ccccc4)s3)[n+]2C)c1` [Example 32] was 1000 nM.
Same read-out and setting: the value for `CCCCn1c(C)c(C=O)c(/C=C/c2ccc3cc(Cl)ccc3[n+]2C)c1C` [Example 58] was less than 1000 nM.
In turn, `CN(C)c1ccc2c(ccc(/C=C/c3ccc4oc(C(=O)c5ccc(Cl)cc5)cc4c3)[n+]2C)c1` [Example 42] displayed a 50% effective concentration (EC50) in series [1] of 1000 nM.
Consider `COc1cc(/C=C/c2ccc3cc(N(C)C)ccc3[n+]2C)ccc1OCc1ccccc1` [Example 45], for which, in series [1], the EC50 was less than 1000 nM.
Regarding `CCCCn1c(C)c(C=O)c(/C=C/c2ccc3cc(C)ccc3[n+]2C)c1C` [Example 57], the EC50 in series [1] is less than 1000 nM.
Consider `CC(=O)O[C@H]1C(=O)[C@@]2(C)[C@H]([C@H](OC(=O)c3ccccc3)[C@]3(O)C[C@H](OC(=O)[C@H](O)[C@@H](NC(=O)c4ccccc4)c4ccccc4)C(C)=C1C3(C)C)[C@]1(OC(C)=O)CO[C@@H]1C[C@@H]2O` [Taxol, paclitaxel, reference compound], for which the “growth of PC3 medium-staged xenograft tumors” value in the series on PC3 prostate cells is recorded as “reduced tumor size significantly”. For the same compound, the A549 tumor size result in the series on A549 cancer cells [3] is “significant reduction in tumor size”.
For the compound `CN(C)c1ccc2c(ccc(/C=C/c3ccc(OCc4ccccc4)cc3)[n+]2C)c1` [Example 46], in series [1], the EC50 was less than 1000 nM.
Consider `CCCCn1c(C)c(C=O)c(/C=C/c2ccc3cc(N(C)C)ccc3[n+]2C)c1C.CS(=O)(=O)[O-]` [Example 56], for which the “Result: Tumor reduction” value with H460 NSCL cells (NSCL, H460 xenograft, I.p.) is given as “Tumor reduction (41%)”. Further, the “H460 tumor size as compared to control” value in the series on H460 NSCL cells (dosed i.p. daily (6 times/week), p<0.05, FIG. 2) is recorded as “significant reduction”. In addition, the toxicity entry with H460 NSCL cells (nude mice, H460 xenograft, i.p. daily (6 times/week)) is listed as “no apparent toxicity”. The compound also came in with an EC50 in series [1] of less than 1000 nM.
In series [1], `CCOC(=O)c1c(/C=C/c2ccc3cc(N(C)C)ccc3[n+]2C)c(C)n(Cc2cccs2)c1C` [Example 55] yielded a 50% effective concentration (EC50) of less than 1000 nM.
`CN(C)c1ccc2c(ccc(/C=C/c3ccc(-c4cc(C(F)(F)F)nn4C)s3)[n+]2C)c1` [Example 37] displayed an EC50 in series [1] of 1000 nM.

Broadly, the EC50 is the concentration needed to bring the measured effect to its halfway point. High values mean a less potent agent, low ones a more potent agent.
